Columns and labels:
Tg-MYOCY437H mice = test: Outflow facility in Tg-MYOCY437H mouse eyes (Example 19); format: in vivo
Method: To investigate whether corticosteroids affect outflow facility in Tg-MYOCY437H mice, animals received bilateral injections (20 μl) with either triamcinolone acetonide (TA) (40 mg/ml, Kenalog-40; Bristol-Myers Squibb, NY, USA) suspension or phosphate-buffered saline (PBS) (Gibco, ThermoFisher Scientific, Waltham, Mass., USA) subconjunctivally using a 100 μL Hamilton syringe with a 26-gauge needle (Precision Glide, Becton Dickinson & CO, Franklin Lakes, N.J., USA). They were euthanized one week later for outflow facility measurement.
To investigate whether tPA can affect outflow facility in Tg-MYOCY437H mice, and determine whether tPA enzymatic action is necessary for such an effect, intravitreal injections were performed using a 10 μL Hamilton syringe with 36-gauge stainless steel needles (WPI Inc, Sarasota, Fla., USA). […] Animals were sacrificed either two or five days after intravitreal injections for outflow facility measurement. […]
Mouse eyes were enucleated immediately after euthanasia. Outflow facility was determined using a microfluidic flow sensor (0.07-1.5 uL/min, MFS1; Elveflow, Paris, France) and constant pressure method, as previously described (Hu, Barron et al. 2019). […] Any eyes that developed visible leaks or that had pressure-flow correlations with […] were excluded from analysis but were used for RNA quantification.

[1] = intravitreal use; toxicity attributed to arginine in commercial preparations; cited from earlier work
MMP-2, MMP-9, MMP-13 [2] = test: MMP expression in PA treated HTM cells (Examples 17, 18); format: cell-based; details: PA treated HTM cells
[3] = tested on: MMP-1, MMP-2, MMP-9, MMP-13, PLAT, PAI-1 mRNA; test: qRT-PCR gene expression in sheep TM and ciliary processes after tPA (Examples 6, 7); format: in vivo
From the text: Methods. Tissue Collection and Isolation of RNA. After animals were euthanized, eyes were immediately enucleated. Eyes were then opened anterior to the equator using a razor blade. The lens was removed from the anterior part, and the tissue was immersed in RNA stabilizing agent (RNAlater; Ambion, Carlsbad, Calif.) and placed […] for transportation to the United States. Upon arrival in the United States, TM and ciliary processes (CP) were dissected on ice in the presence of RNA stabilizing agent as described previously. Dissected tissue was homogenized, and total RNA was extracted using TRIzol reagent (Gibco, Carlsbad, Calif.). Briefly, the tissue was homogenized in TRIzol, and chloroform was added to separate proteins from RNA. After centrifugation, the RNA-containing supernatant was aspirated. The RNA was precipitated with isopropanol, washed with 75% ethanol, treated with DNase, and column purified using a commercial kit (RNAeasy Mini Kit; Qiagen, Valencia, Calif.) in accordance with the manufacturer's instructions. RNA concentrations were determined with a spectrophotometer (Nanodrop; Thermo Scientific, Wilmington, Del.) and the 260:280-nm absorbance ratio was calculated to determine RNA purity.
Quantitative Real-Time PCR (qRT-PCR) The RNA samples were reverse transcribed with random hexamers to cDNA using a reverse transcription kit (Quantitect; Qiagen) in accordance with the manufacturer's instructions. Quantitative RT-PCR was performed using a commercial kit (SYBR Green RT-PCR Reagents Kit; Applied Biosystems, Carlsbad, Calif.) in an ABI PRISM 7900HT sequence detector (Applied Biosystems). […] Plasminogen activator inhibitor 1 (PAI-1) mRNA expression was measured in both TM and ciliary processes tissues. Relative quantification of gene expression was performed using the standard curve method. […] The DCt was calculated as the difference in Ct values derived from the target gene and the 18S gene. The DDCt was calculated as DCt of the normalized assayed genes in the treated samples minus DCt of normalized assayed genes in the naïve control samples. […]

[4] = tested on: Mmp-2, Mmp-9, Mmp-13, Plat; test: Mmp and Plat expression in protein treated C57BL/6J eyes not exposed to steroids (Example 15); format: in vivo, mouse; details: C57BL/6J not exposed to steroids
Mmp-2, Mmp-9, Mmp-13 [5] = test: Mmp expression in Tg-MYOCY437H angle ring tissue (Example 19); format: in vivo, mouse; details: vs BSA treated eyes
Method: Eyes were flash frozen in liquid nitrogen after outflow facility determination and subsequently dissected on ice to obtain the angle ring tissues containing the TM, as previously described (Kumar, Shah et al. 2013). Dissected TM tissues were immersed in RNAlater solution (Invitrogen, Waltham, Mass., USA) and then snap-frozen and stored at −80° C. until RNA extraction. Tissue collected was pooled (four eyes) and homogenized in TRIzol reagent for RNA isolation, per manufacturer's instructions (Life Technologies, Carlsbad, Calif., USA). RNA concentration was determined with a Nanodrop ND-1000 Spectrophotometer (Thermo Scientific, Wilmington, Del., USA). cDNA was synthesized by using High-Capacity cDNA Reverse Transcription Kit (Applied Biosystems, Waltham, Mass., USA) according to manufacturer's protocol. Quantitative real-time PCR (qRT-PCR) was performed by using Green-2-Go qPCR Mastermix-ROX (Bio Basic, Amherst, N.Y., USA) on a QuantStudio 6 Flex thermal cycler (Applied Biosystems, Carlsbad, Calif., USA). mRNA expression of Plat, Plau, Pai-1, Mmp-2, Mmp-9, and Mmp-13 in angle ring tissues was determined. Primers were designed by using Primer-BLAST (https://www.ncbi.nlm.nih.gov/tools/primer-blast/index.cgi?LINK_LOC=BlastHome; in the public domain); primer sequences are listed in Table 2. Primer specificity was confirmed by agarose gel electrophoresis and multiple-sized amplification products were absent on inspection of melting curves. Target mRNA expression values were normalized to the expression levels of Rps11 (ribosomal protein S11). The relative fold change was calculated by using the ΔΔCt method (Hu, Wang et al. 2015). Outliers identified via the Thompson Tau test were removed from analysis.

For tissue plasminogen activator [tPA], the “improvement of outflow facility” value (Tg-MYOCY437H mice) is listed as roughly 31%, the “doses with reported retinal toxicity” value [1] is listed as 50 to 100 µg and the MMP-2 expression (MMP-2, MMP-9, MMP-13 [2]; between treatments) is listed as “not significantly different”. For the same substance, the “expression (FIG. 17C, MMP-9)” value (MMP-2, MMP-9, MMP-13 [2]; vs PA+BSA) was “significant upregulation”, the PLAT expression ([3]; sheep TM (FIG. 7)) was “down-regulates” and the “expression of MMP1 and MMP9” value ([3]; sheep TM (FIG. 7)) was “up-regulates”. The “expression of MMP1, MMP2, MMP9, MMP13 and PAI-1” value ([3]; sheep trabecular meshwork and ciliary processes) was “up-regulates”, the “endogenous Plat expression” value [4] was “did not cause significant changes” and the “gene expression changes in Mmp-2, Mmp-9 and Mmp-13” value ([4]; vs BSA) was “not significantly different”. For the same substance, the Mmp-2 expression (Mmp-2, Mmp-9, Mmp-13 [5]; 2 days) was “no significant difference”, the Mmp-9 expression (Mmp-2, Mmp-9, Mmp-13 [5]; 2 days) was “not detected” and the Mmp-13 expression (Mmp-2, Mmp-9, Mmp-13 [5]; 2 days) was “significantly higher”. For the same substance, the Mmp-2 expression (Mmp-2, Mmp-9, Mmp-13 [5]; 5 days) was “no significant difference”, the Mmp-9 expression (Mmp-2, Mmp-9, Mmp-13 [5]; 5 days) was “higher” and the Mmp-13 expression (Mmp-2, Mmp-9, Mmp-13 [5]; 5 days) was “significantly higher”.

Reference: patent publication US20210220450A1, “TREATMENT OF AN IOP CONDITION” (The Research Foundation for The State University of New York, priority 2013, published 2021)
